The test system of the experiment is AsPC-1 cells. The experiment is described as follows: phospho-ERK HTRF assay in AsPC-1 cells, 4 h treatment. The format is cell-based. The settings on record: Homo sapiens, ASPC1.
[1] abbreviates: AsPC-1, 4H, Table 1a class column, read-out: pERK IC50 activity range (*).
[2] abbreviates: AsPC-1, 4H, Table 1a, read-out: PERK IC50 (AsPC-1, 4H).
[3] abbreviates: AsPC-1, 4h, Table 1b, read-out: PERK IC50 (AsPC-1, 4h).

Like-named read-outs stand apart in the source and are kept apart here.

Broadly, the IC50 is the concentration that inhibits the measured activity by half. As to `CN(C)C(=O)c1nn2c(c1Cl)CN(c1nc(OC[C@@]34CCCN3C/C(=C\F)C4)nc3c1COC(c1c(C(F)(F)F)ccc(N)c1F)C3)CCC2` (stereo partly drawn) [compound 233, 5-(7-(3-amino-2-fluoro-6-(trifluoromethyl)phenyl)-2-(((S,Z)-2-(fluoromethylene)tetrahydro-1H-pyrrolizin-7a(5H)-yl)methoxy)-7,8-dihydro-5H-pyrano[4,3-d]pyrimidin-4-yl)-3-chloro-N,N-dimethyl-5,6,7,8-tetrahydro-4H-pyrazolo[1,5-a][1,4]diazepine-2-carboxamide], the IC50 reads like this: under setting [1], 10 to 30 nM; under setting [2], 30 nM.

Turning to `CC#Cc1cc(N)c(F)c([C@@H]2Cc3nc(OC[C@@]45CCCN4C/C(=C\F)C5)nc(N4CCCn5nc(C(=O)N(C)C)c(Cl)c5C4)c3CO2)c1C(F)(F)F` [compound 437], the 50% inhibitory concentration (IC50) under setting [3] is less than 10 nM.

As to `CS(=O)(=O)c1nn2c(c1Cl)CN(c1nc(OC[C@@]34CCCN3C[C@H](F)C4)nc3c1CO[C@H](c1c(C(F)(F)F)ccc(N)c1F)C3)CCC2` [211a, 3-((S)-4-(3-Chloro-2-(methylsulfonyl)-7,8-dihydro-4H-pyrazolo[1,5-a][1,4]diazepin-5(6H)-yl)-2-(((2R,7aS)-2-fluorotetrahydro-1H-pyrrolizin-7a(5H)-yl)methoxy)-7,8-dihydro-5H-pyrano[4,3-d]pyrimidin-7-yl)-2-fluoro-4-(trifluoromethyl)aniline], the concentration for half-maximal inhibition (IC50) runs as follows: under setting [1], 101 to 500 nM; under setting [2], 126 nM.

For `CC#Cc1cc(N)cc([C@@H]2Cc3nc(OC[C@@]45CCCN4C/C(=C\F)C5)nc(N4CCCn5nc(C(=O)N(C)C)c(CC)c5C4)c3CO2)c1C(F)(F)F` [compound 424], the IC50 under setting [3] is less than 10 nM.

Consider `Cc1c(C(=O)N(C)C)nn2c1CN(c1nc(OC[C@]34CCCN3C[C@@H](C=C(F)F)C4)nc3c1CO[C@H](c1c(F)c(N)cc(Cl)c1C(F)(F)F)C3)CCC2` [compound 458], for which, under setting [3], the 50% inhibitory concentration (IC50) was less than 10 nM.

Take `CN(C)C(=O)c1nn2c(c1Cl)CN(c1nc(OC[C@@]34CCCN3C[C@H](F)C4)nc3c1CO[C@H](c1c(C(F)(F)F)cc(F)c(N)c1F)C3)CCC2` [216a, 5-((S)-7-(3-amino-2,4-difluoro-6-(trifluoromethyl)phenyl)-2-(((2R,7aS)-2-fluorotetrahydro-1H-pyrrolizin-7a(5H)-yl)methoxy)-7,8-dihydro-5H-pyrano[4,3-d]pyrimidin-4-yl)-3-chloro-N,N-dimethyl-5,6,7,8-tetrahydro-4H-pyrazolo[1,5-a][1,4]diazepine-2-carboxamide]: the IC50 was 31 to 100 nM under setting [1] and 49 nM under setting [2].

Take `CN(C)C(=O)c1nn2c(c1F)CN(c1nc(OC[C@@]34CCCN3C/C(=C\F)C4)nc3c1CO[C@H](c1cc(N)cc(Cl)c1C(F)(F)F)C3)CCC2` [compound 412]: the concentration for half-maximal inhibition (IC50) under setting [3] was less than 10 nM.

Take `CN(C)C(=O)c1nn2c(c1Cl)CN(c1nc(OC[C@@]34CCCN3C/C(=C\F)C4)nc3c1COC(c1cc(N)cc(Cl)c1C(F)(F)F)C3)CCC2` (stereo partly drawn) [compound 242]: under setting [3], the IC50 is less than 10 nM.

Regarding `COCCN(C)C(=O)c1nn2c(c1Cl)CN(c1nc(OC[C@@]34CCCN3C[C@H](F)C4)nc3c1COC(c1c(C(F)(F)F)ccc(N)c1F)C3)CCC2` (stereo partly drawn) [compound 225], the IC50 by setting is: under setting [1], 31 to 100 nM; under setting [2], 82 nM.

`CC#Cc1cc(N)cc([C@@H]2Cc3nc(OC[C@@]45CCCN4C/C(=C\F)C5)nc(N4CCCn5nc(C(=O)N(C)CC)cc5C4)c3CO2)c1C(F)(F)F` [compound 428]: the IC50 under setting [3] was less than 10 nM.

`CN(C)C(=O)c1nn2c(c1Cl)CN(c1nc(OC[C@@]34CCCN3CC(=C(F)F)C4)nc3c1COC(c1cc(N)cc(F)c1C(F)(F)F)C3)CCC2` (stereo partly drawn) [compound 238]: the IC50 is, setting by setting: under setting [1], 10 to 30 nM; under setting [2], 29.3 nM.

With `CC#Cc1cc(N)cc([C@@H]2Cc3nc(OC[C@@]45CCCN4C[C@H](F)C5)nc(N4CCCn5nc(C(=O)N(C)C)c(C)c5C4)c3CO2)c1C(F)(F)F` [compound 419], the 50% inhibitory concentration (IC50) under setting [3] was less than 10 nM.

For `CCN(C)C(=O)c1nn2c(c1Cl)CN(c1nc(OC[C@@]34CCCN3C[C@H](F)C4)nc3c1CO[C@H](c1c(F)c(N)cc(Cl)c1C(F)(F)F)C3)CCC2` [compound 433], under setting [3], the IC50 was less than 10 nM.

For `CN(C)C(=O)c1nn2c(c1Cl)CN(c1nc(OC[C@@]34CCCN3C[C@H](F)C4)nc3c1CO[C@@H](c1c(F)c(N)cc(F)c1C(F)(F)F)C3)CCC2` [214b], the 50% inhibitory concentration (IC50) under setting [1] is greater than 500 nM and the half-maximal inhibitory concentration (IC50) under setting [2] stood at 1550 nM.

With `CN(C)C(=O)c1nn2c(c1Cl)CN(c1nc(OC[C@]34CCCN3C[C@@H](C=C(F)F)C4)nc3c1CO[C@H](c1cc(N)cc(Cl)c1C(F)(F)F)C3)CCC2` [compound 456], the concentration for half-maximal inhibition (IC50) under setting [3] is less than 10 nM.

`Nc1ccc(C(F)(F)F)c([C@@H]2Cc3nc(OC[C@@]45CCCN4C[C@H](F)C5)nc(N4CCCS(=O)(=O)CC4)c3CO2)c1F` [compound 204]: the IC50 by setting is: under setting [1], greater than 500 nM; under setting [2], greater than 10000 nM.

For `Cc1cc(N)cc([C@@H]2Cc3nc(OC[C@@]45CCCN4C/C(=C\F)C5)nc(N4CCCn5nc(C(=O)N(C)C)cc5C4)c3CO2)c1C(F)(F)F` [compound 302, 5-((S)-7-(5-amino-3-methyl-2-(trifluoromethyl)phenyl)-2-(((S,Z)-2-(fluoromethylene)tetrahydro-1H-pyrrolizin-7a(5H)-yl)methoxy)-7,8-dihydro-5H-pyrano[4,3-d]pyrimidin-4-yl)-N,N-dimethyl-5,6,7,8-tetrahydro-4H-pyrazolo[1,5-a][1,4]diazepine-2-carboxamide], the IC50 under setting [3] was less than 10 nM.

Consider `CN(C)C(=O)c1nn2c(c1Cl)CN(c1nc(OC[C@@]34CCCN3C[C@H](F)C4)nc3c1COC(c1cc(N)cc(F)c1C(F)(F)F)C3)CCC2` (stereo partly drawn) [compound 237], for which the half-inhibitory concentration (IC50) runs as follows: under setting [1], 10 to 30 nM; under setting [2], 20.4 nM.

For `Cn1cc2c(n1)CCCN(c1nc(OC[C@@]34CCCN3C[C@H](F)C4)nc3c1COC(c1c(C(F)(F)F)ccc(N)c1F)C3)C2` (stereo partly drawn) [compound 229], the IC50 under setting [1] was greater than 500 nM and the 50% inhibitory concentration (IC50) under setting [2] is greater than 10000 nM.

Turning to `Cc1c(C(=O)N(C)C)nn2c1CN(c1nc(OC[C@@]34CCCN3C[C@H](F)C4)nc3c1CO[C@H](c1cc(N)cc(Cl)c1C(F)(F)F)C3)CCC2` [compound 414], the IC50 under setting [3] was less than 10 nM.

For `CN(C)C(=O)c1nn2c(c1Cl)CN(c1nc(OC[C@@]34CCCN3C/C(=C\F)C4)nc3c1COC(c1cc(N)cc(F)c1C(F)(F)F)C3)CCC2` (stereo partly drawn) [compound 246], the IC50 runs as follows: under setting [1], 10 to 30 nM; under setting [2], 15.9 nM.

With `CN(C)C(=O)c1nn2c(c1Cl)CN(c1nc(OC[C@@]34CCCN3C[C@H](F)C4)nc3c1CO[C@@H](c1c(C(F)(F)F)cc(F)c(N)c1F)C3)CCC2` [216b], the half-maximal inhibitory concentration (IC50) is, setting by setting: under setting [1], greater than 500 nM; under setting [2], greater than 10000 nM.

With `CN(C)C(=O)c1nn2c(c1Cl)CN(c1nc(OC[C@@]34CCCN3C[C@H](F)C4)nc3c1CO[C@H](c1c(F)c(N)cc(Cl)c1C(F)(F)F)C3)CCC2` [213a, 5-((S)-7-(3-amino-5-chloro-2-fluoro-6-(trifluoromethyl)phenyl)-2-(((2R,7aS)-2-fluorotetrahydro-1H-pyrrolizin-7a(5H)-yl)methoxy)-7,8-dihydro-5H-pyrano[4,3-d]pyrimidin-4-yl)-3-chloro-N,N-dimethyl-5,6,7,8-tetrahydro-4H-pyrazolo[1,5-a][1,4]diazepine-2-carboxamide], the IC50 under setting [3] was less than 10 nM.

Consider `Cc1c(C(=O)N(C)C)nn2c1CN(c1nc(OC[C@@]34CCCN3C/C(=C\F)C4)nc3c1CO[C@H](c1c(F)c(N)cc(Cl)c1Cl)C3)CCC2` [compound 442], for which the IC50 under setting [3] is less than 10 nM.

For `Nc1ccc(C(F)(F)F)c(C2Cc3nc(OC[C@@]45CCCN4C[C@H](F)C5)nc(N4CCNCC(=O)C4)c3CO2)c1F` (stereo partly drawn) [compound 203], the IC50 is, setting by setting: under setting [1], greater than 500 nM; under setting [2], greater than 10000 nM.

Consider `CN(C)C(=O)c1nn2c(c1Cl)CN(c1nc(OC[C@@]34CCCN3C/C(=C\F)C4)nc3c1CO[C@H](c1c(F)c(N)cc(Cl)c1C(F)(F)F)C3)CCC2` [247a, 5-((S)-7-(3-amino-5-chloro-2-fluoro-6-(trifluoromethyl)phenyl)-2-(((S,Z)-2-(fluoromethylene)tetrahydro-1H-pyrrolizin-7a(5H)-yl)methoxy)-7,8-dihydro-5H-pyrano[4,3-d]pyrimidin-4-yl)-3-chloro-N,N-dimethyl-5,6,7,8-tetrahydro-4H-pyrazolo[1,5-a][1,4]diazepine-2-carboxamide], for which the IC50 under setting [3] is less than 10 nM.

For `CCN(CC)C(=O)c1nn2c(c1Cl)CN(c1nc(OC[C@@]34CCCN3C/C(=C\F)C4)nc3c1CO[C@H](c1c(F)c(N)cc(Cl)c1C(F)(F)F)C3)CCC2` [compound 434], the half-inhibitory concentration (IC50) under setting [3] was less than 10 nM.

Turning to `CN(C)C(=O)c1nn2c(c1Cl)CN(c1nc(OC[C@@]34CCCN3C[C@H](F)C4)nc3c1COC(c1cc(N)ccc1C(F)(F)F)C3)CCC2` (stereo in doubt) [230b, 5-((R)-7-(5-amino-2-(trifluoromethyl)phenyl)-2-(((2R,7aS)-2-fluorotetrahydro-1H-pyrrolizin-7a(5H)-yl)methoxy)-7,8-dihydro-5H-pyrano[4,3-d]pyrimidin-4-yl)-3-chloro-N,N-dimethyl-5,6,7,8-tetrahydro-4H-pyrazolo[1,5-a][1,4]diazepine-2-carboxamide], the concentration for half-maximal inhibition (IC50) is, setting by setting: under setting [1], 31 to 100 nM; under setting [2], 13 nM.

On to `CN(C(=O)c1nn2c(c1Cl)CN(c1nc(OC[C@@]34CCCN3C[C@H](F)C4)nc3c1COC(c1c(C(F)(F)F)ccc(N)c1F)C3)CCC2)C1CC1` (stereo partly drawn) [compound 232, 5-(7-(3-amino-2-fluoro-6-(trifluoromethyl)phenyl)-2-(((2R,7aS)-2-fluorotetrahydro-1H-pyrrolizin-7a(5H)-yl)methoxy)-7,8-dihydro-5H-pyrano[4,3-d]pyrimidin-4-yl)-3-chloro-N-cyclopropyl-N-methyl-5,6,7,8-tetrahydro-4H-pyrazolo[1,5-a][1,4]diazepine-2-carboxamide], for which the IC50 is 101 to 500 nM under setting [1]; 247 nM under setting [2]; greater than 1000 nM (AsPC-1, 4H, individual (R) diastereomer of Ex. 232, read-out: PERK IC50 (AsPC-1, 4H) nM, individual diastereomer (R)); 166 nM (AsPC-1, 4H, individual (S) diastereomer of Ex. 232, read-out: PERK IC50 (AsPC-1, 4H) nM, individual diastereomer (S)).

The values above are taken from patent US20260224589A1 (priority 2023, published 2026).
